# Source: publication PMC4264749, “Phlebotomy Treatment for Elimination of Perfluoroalkyl Acids in a Highly Exposed Family: A Retrospective Case-Series” (PLoS ONE, 2014)
# Like-named read-outs stand apart in the source and are kept apart here.
# Columns and labels:
# [1] = Serum PFAA concentrations in family members during intermittent phlebotomy (HPLC-MS/MS); assay type: in vivo, human; settings: for Serum concentration before treatment: before phlebotomy; for Serum concentration after treatment: after phlebotomy
# Excerpt: After receiving informed consent, intermittent phlebotomy was undertaken at an overall rate (Table 2) that was equal to or less than the maximum rate of what is done for routine blood donations at the Canadian Blood Services: ∼500 ccs of whole blood every 56 days. Frequency and timing of blood removal was not consistent between family members because of their personal availability, success at each time of venesection, and compliance of each participant. […] Mineral supplementation was discussed and was taken by each participant.
# All serum samples were submitted to ALS Laboratories (Edmonton, AB) for quantitative analysis of PFAAs (see Supporting Information, S1 Table). Samples were extracted by solid phase extraction and concentrations of PFHxS, PFOS, and PFOA were determined using high performance liquid chromatography/tandem mass spectrometry. Formic acid (0.1 M) along with a mixture of isotopically labeled PFAAs (Wellington Laboratories, Guelph, Ontario) were added to 1.0 mL of serum. The mixture was vortexed, sonicated, and subjected to solid phase extraction. The extract was concentrated to 100 uL and an instrument performance internal standard was added along with 200 uL of 90% 20 mM aqueous acetic acid/10% methanol. Procedural blanks were run with each set of samples, and method limits of quantification (LOQ) were 0.5 ng/mL for each analyte. For the few PFAA levels that fell below this LOQ (shown as hollow circles in Figs. 1–3), LOQ/√2 (i.e. 0.35 ng/mL) was substituted for purposes of data analysis. PFHxS, PFOS, and PFOA levels in all participating family members were >LOQ throughout the intervention except for 3 PFOS measurements out of 16 total measurements in the 3rd child and one PFOA measurement out of 9 total measurements in the […]. Written informed consent was given by participants (or parents in the case of children) for their clinical records to be used in this study.
# [2] = Apparent elimination half-life (HLapp) and phlebotomy efficiency coefficient in treated family members; assay type: in vivo, human; settings: family members with regular phlebotomy, except parent
# Excerpt: To evaluate the effect of phlebotomy, versus the expected rate of intrinsic elimination, we graphically and statistically compared the observed decreasing trends in each family member (fitted to a simple exponential decay model) with reference population elimination kinetics. Specifically, for the reference population of occupationally exposed retirees, we considered: i) the 95% confidence interval of the geometric mean elimination rate for each PFAA, and ii) the fastest individual rate of elimination rate among the reference population. For comparative purposes, the concentration of each PFAA in serum on the first day of the intervention was taken as time zero, and the models were forced through this starting point.
# One metric that was calculated to compare the efficiency of the phlebotomy for removal of different PFAAs in each family member was termed the phlebotomy efficiency coefficient (EC). This was based on the subtractive difference between HLapp (yrs) in each treated family member and the geometric mean HLin (yrs) of the reference population according to Equation 1 . [drawing 1] (1)
# [3] = parameters: method as in PMID 17805419; settings: cited from earlier work
# [4] = parameters: method as in PMID 23980546; settings: urinary excretion, China, cited from earlier work
# [5] = parameters: method as in earlier work; settings: 2009–2011; cited from earlier work
smiles,measurement,setting,value
"O=S(=O)(O)C(F)(F)C(F)(F)C(F)(F)C(F)(F)C(F)(F)C(F)(F)C(F)(F)C(F)(F)F [PFOS, perfluoroctane sulfonate]",Serum concentration before treatment,[1]; 1st Child,19.3 ng/mL
same,Serum concentration,"[1]; 1st Child, sampling date 2009.10.12",14.3 ng/mL
same,Serum concentration,"[1]; 1st Child, sampling date 2009.12.24",16.1 ng/mL
same,Serum concentration,"[1]; 1st Child, sampling date 2009.6.9",19.3 ng/mL
same,Serum concentration,"[1]; 1st Child, sampling date 2009.9.9",14.8 ng/mL
same,Serum concentration,"[1]; 1st Child, sampling date 2010.10.14",0.73 ng/mL
same,Serum concentration,"[1]; 1st Child, sampling date 2010.1.17",11.3 ng/mL
same,Serum concentration,"[1]; 1st Child, sampling date 2010.2.11",6.84 ng/mL
same,Serum concentration,"[1]; 1st Child, sampling date 2010.4.14",17.9 ng/mL
same,Serum concentration,"[1]; 1st Child, sampling date 2011.12.5",0.93 ng/mL
same,Serum concentration,"[1]; 1st Child, sampling date 2011.5.17, LOD=0.5ng/mL",<LOD
same,Serum concentration,"[1]; 1st Child, sampling date 2011.8.12, LOD=0.5ng/mL",<LOD
same,Serum concentration,"[1]; 1st Child, sampling date 2012.12.28, LOD=0.5ng/mL",<LOD
same,Serum concentration,"[1]; 1st Child, sampling date 2012.4.24",2.12 ng/mL
same,Serum concentration,"[1]; 1st Child, sampling date 2012.8.21",1.44 ng/mL
same,Serum concentration,"[1]; 1st Child, sampling date 2013.3.30",0.61 ng/mL
same,Serum concentration,"[1]; 1st Child, sampling date 2013.7.30",1.59 ng/mL
same,Serum concentration before treatment,[1]; 2nd Child,59.7 ng/mL
same,Serum concentration,"[1]; 2nd Child, sampling date 2009.10.24",44.7 ng/mL
same,Serum concentration,"[1]; 2nd Child, sampling date 2009.6.6",59.7 ng/mL
same,Serum concentration,"[1]; 2nd Child, sampling date 2009.7.2",51.9 ng/mL
same,Serum concentration,"[1]; 2nd Child, sampling date 2009.7.30",51.9 ng/mL
same,Serum concentration,"[1]; 2nd Child, sampling date 2009.8.24",67.8 ng/mL
same,Serum concentration,"[1]; 2nd Child, sampling date 2009.9.27",41.4 ng/mL
same,Serum concentration,"[1]; 2nd Child, sampling date 2010.1.3",36.6 ng/mL
same,Serum concentration,"[1]; 2nd Child, sampling date 2010.2.15",47.7 ng/mL
same,Serum concentration,"[1]; 2nd Child, sampling date 2011.10.2",1.8 ng/mL
same,Serum concentration,"[1]; 2nd Child, sampling date 2011.12.24",13.9 ng/mL
same,Serum concentration,"[1]; 2nd Child, sampling date 2011.4.27",7.0 ng/mL
same,Serum concentration,"[1]; 2nd Child, sampling date 2011.8.14",4.6 ng/mL
same,Serum concentration,"[1]; 2nd Child, sampling date 2012.12.24",5.5 ng/mL
same,Serum concentration,"[1]; 2nd Child, sampling date 2012.4.6",12.2 ng/mL
same,Serum concentration,"[1]; 2nd Child, sampling date 2013.5.11.",9.2 ng/mL
same,Serum concentration,"[1]; 2nd Child, sampling date 2013.7.15",9.0 ng/mL
same,Serum concentration before treatment,[1]; 3rd Child,87.3 ng/mL
same,Serum concentration,"[1]; 3rd Child, sampling date 2009.10.11",107.0 ng/mL
same,Serum concentration,"[1]; 3rd Child, sampling date 2009.12.16",48.9 ng/mL
same,Serum concentration,"[1]; 3rd Child, sampling date 2009.6.1",87.3 ng/mL
same,Serum concentration,"[1]; 3rd Child, sampling date 2009.7.4",102.9 ng/mL
same,Serum concentration,"[1]; 3rd Child, sampling date 2009.8.7",76.5 ng/mL
same,Serum concentration,"[1]; 3rd Child, sampling date 2009.9.7",113.0 ng/mL
same,Serum concentration,"[1]; 3rd Child, sampling date 2010.1.24",58.8 ng/mL
same,Serum concentration,"[1]; 3rd Child, sampling date 2010.3.12",66.3 ng/mL
same,Serum concentration,"[1]; 3rd Child, sampling date 2010.5.23",52.8 ng/mL
same,Serum concentration,"[1]; 3rd Child, sampling date 2011.1.6",18.6 ng/mL
same,Serum concentration,"[1]; 3rd Child, sampling date 2011.11.26",9.2 ng/mL
same,Serum concentration,"[1]; 3rd Child, sampling date 2011.2.24",11.9 ng/mL
same,Serum concentration,"[1]; 3rd Child, sampling date 2011.4.30",12.1 ng/mL
same,Serum concentration,"[1]; 3rd Child, sampling date 2011.6.13",11.5 ng/mL
same,Serum concentration,"[1]; 3rd Child, sampling date 2011.9.27",4.8 ng/mL
same,Serum concentration,"[1]; 3rd Child, sampling date 2012.10.16",17.1 ng/mL
same,Serum concentration,"[1]; 3rd Child, sampling date 2012.1.8",20.8 ng/mL
same,Serum concentration,"[1]; 3rd Child, sampling date 2012.12.9",10.5 ng/mL
same,Serum concentration,"[1]; 3rd Child, sampling date 2012.3.4",25.4 ng/mL
same,Serum concentration,"[1]; 3rd Child, sampling date 2012.4.28",19.8 ng/mL
same,Serum concentration,"[1]; 3rd Child, sampling date 2013.10.27",12.2 ng/mL
same,Serum concentration,"[1]; 3rd Child, sampling date 2013.2.5",8.8 ng/mL
same,Serum concentration,"[1]; 3rd Child, sampling date 2013.3.30",8.0 ng/mL
same,Serum concentration,"[1]; 3rd Child, sampling date 2013.5.5",12.8 ng/mL
same,Serum concentration,"[1]; 3rd Child, sampling date 2013.7.25",13.4 ng/mL
same,Serum concentration,"[1]; 3rd Child, sampling date 2013.9.8",12.0 ng/mL
same,starting serum concentration relative to 95th percentile among Canadians,[1]; 3 youngest children,3–5 fold
same,Serum concentration after treatment,[1]; 4th Child,5.0 ng/mL
same,Serum concentration before treatment,[1]; 4th Child,62.4 ng/mL
same,Serum concentration,"[1]; 4th Child, sampling date 2010.1.24",26.8 ng/mL
same,Serum concentration after treatment,[1]; Average of 6 family members,6.7 ng/mL
same,Serum concentration before treatment,[1]; Average of 6 family members,43.4 ng/mL
same,Serum concentration before treatment,[1]; Parent one,15.1 ng/mL
same,Serum concentration,"[1]; Parent one, sampling date 2009.10.11",8.8 ng/mL
same,Serum concentration,"[1]; Parent one, sampling date 2009.10.12",9.2 ng/mL
same,Serum concentration,"[1]; Parent one, sampling date 2009.11.12",11.0 ng/mL
same,Serum concentration,"[1]; Parent one, sampling date 2009.12.14",8.6 ng/mL
same,Serum concentration,"[1]; Parent one, sampling date 2009.2.2",15.1 ng/mL
same,Serum concentration,"[1]; Parent one, sampling date 2009.5.18",13.2 ng/mL
same,Serum concentration,"[1]; Parent one, sampling date 2009.6.1",11.8 ng/mL
same,Serum concentration,"[1]; Parent one, sampling date 2009.7.4",9.8 ng/mL
same,Serum concentration,"[1]; Parent one, sampling date 2009.9.1",11.3 ng/mL
same,Serum concentration,"[1]; Parent one, sampling date 2010.10.10",6.1 ng/mL
same,Serum concentration,"[1]; Parent one, sampling date 2010.1.17",8.6 ng/mL
same,Serum concentration,"[1]; Parent one, sampling date 2010.3.13",6.8 ng/mL
same,Serum concentration,"[1]; Parent one, sampling date 2011.1.6",2.3 ng/mL
same,Serum concentration,"[1]; Parent one, sampling date 2011.11.26",1.4 ng/mL
same,Serum concentration,"[1]; Parent one, sampling date 2011.2.24",2.1 ng/mL
same,Serum concentration,"[1]; Parent one, sampling date 2011.4.30",1.5 ng/mL
same,Serum concentration,"[1]; Parent one, sampling date 2011.6.22",1.6 ng/mL
same,Serum concentration,"[1]; Parent one, sampling date 2011.8.4",1.3 ng/mL
same,Serum concentration,"[1]; Parent one, sampling date 2011.9.27",0.5 ng/mL
same,Serum concentration,"[1]; Parent one, sampling date 2012..12.28",0.66 ng/mL
same,Serum concentration,"[1]; Parent one, sampling date 2012.1.14",3.8 ng/mL
same,Serum concentration,"[1]; Parent one, sampling date 2012.11.1",1.7 ng/mL
same,Serum concentration,"[1]; Parent one, sampling date 2012.3.4",3.7 ng/mL
same,Serum concentration,"[1]; Parent one, sampling date 2012.4.29",2.7 ng/mL
same,Serum concentration,"[1]; Parent one, sampling date 2012.7.8",3.1 ng/mL
same,Serum concentration,"[1]; Parent one, sampling date 2012.8.21",3.1 ng/mL
same,Serum concentration,"[1]; Parent one, sampling date 2013.10.27",1.4 ng/mL
same,Serum concentration,"[1]; Parent one, sampling date 2013.2.18",1.3 ng/mL
same,Serum concentration,"[1]; Parent one, sampling date 2013.3.30",1.5 ng/mL
same,Serum concentration,"[1]; Parent one, sampling date 2013.5.11",2.5 ng/mL
same,Serum concentration,"[1]; Parent one, sampling date 2013.7.15",2.3 ng/mL
same,Serum concentration,"[1]; Parent one, sampling date 2013.9.8",1.4 ng/mL
same,Serum concentration before treatment,[1]; Parent two,16.3 ng/mL
same,Serum concentration,"[1]; Parent two, sampling date 2009.6.1",16.3 ng/mL
same,Serum concentration,"[1]; Parent two, sampling date 2009.7.7",10.9 ng/mL
same,Serum concentration,"[1]; Parent two, sampling date 2009.8.24",10.4 ng/mL
same,Serum concentration,"[1]; Parent two, sampling date 2010.1.3",5.7 ng/mL
same,Serum concentration,"[1]; Parent two, sampling date 2010.4.11, LOD=0.5ng/mL",4.4 ng/mL
same,Serum concentration,"[1]; Parent two, sampling date 2012.3.13",4.1 ng/mL
same,Serum concentration,"[1]; Parent two, sampling date 2013.1.1",2.5 ng/mL
same,Serum concentration,"[1]; Parent two, sampling date 2013.10.6",11.0 ng/mL
same,Serum concentration,"[1]; Parent two, sampling date 2013.6.22",3.4 ng/mL
same,HLapp compared with geometric mean HLin of reference population,[2],significantly shorter
same,HLin of fastest eliminator in the reference population,[3]; reference population of occupationally exposed retirees (26 individuals),2.4 yrs
same,95% confidence interval of the geometric mean HLin,[3]; reference population of occupationally exposed retirees,4.0–5.8 yrs
same,intrinsic human elimination half-life (HLin),"[3]; serum, highly contaminated retirees >55 yrs, previously occupationally exposed",5.4 years
same,"HLin, 95% confidence interval","[3]; serum, retirees >55 yrs, previously occupationally exposed",3.9–6.9 yrs
same,HLapp,[4]; males and post-menopausal females,27 years
same,HLapp,[4]; reproductive-aged females,6.2 years
same,95th percentile of serum concentration among Canadians,[5],18 ng/mL
